Reference: US9617247B1, “Form of halosulfuron-methyl, a process for its preparation and use of the same” (priority 2015, dated 2017)

Assays:
Assay type in all cases: physicochemical
[1] = Determining water solubility (pH 7 buffer, HPLC of supernatant); conditions: for Concentration measured by HPLC after treatment: pH 7 buffer
Procedure: A stock pH 7 buffer solution was prepared by adding aqueous sodium hydroxide solution (0.1 M, 145 mL) to aqueous potassium dihydrogen phosphate solution (0.1 M, 250 mL), and then adding sufficient distilled water to adjust the final volume to 500 mL. At least 1 time and up to about 5 times the amount of halosulfuron-methyl needed for saturation was added to a mixing vessel containing stock buffer solution at the test temperature (e.g., 20° C.). The mixture was magnetically stirred in the dark while being maintained at the test temperature. Samples were periodically removed for analysis. The samples were centrifuged using a high speed, temperature-controlled centrifuge at the test temperature for about 20 minutes at ≧12000 G to remove suspended particles. An aliquot of each supernatant was taken for analysis.
The concentration of halosulfuron-methyl in the supernatant was determined by a high pressure liquid chromatography (HPLC) with a reversed phase chromatography column and UV detection. […] Samples were successively withdrawn from the mixing vessel and analyzed until three successive samples show little or no variation in concentration. The test is preferably replicated to ensure accuracy.

[2] = Viscosity (stated finding, no method given)
[3] = Cleanout test (residual halosulfuron-methyl extracted from bottle with acetonitrile); conditions: lower rating = more effective cleanout
Procedure: The test was conducted by dispersing in water a sample to produce a concentration that is normally used when applying the herbicide: 25% halosulfuron-methyl. The sample was added to tap water (300 mL) in a 400 mL beaker and magnetically stirred for 2 minutes. The mixture was then stirred for 2 minutes, whereupon the resulting dispersion was dispensed in three 100 mL aliquots to 4-oz (118 mL) polyethylene bottles. The bottles were capped, inverted twice and allowed to stand overnight.
After standing overnight, each individual bottle was inverted twice and the liquid contents were then poured out. Tap water (10 mL) was added and the bottle was inverted until all sediment was re-suspended, whereupon the contents were poured out. Tap water (100 mL) was added and the bottle was inverted twice and then allowed to stand undisturbed for 10 minutes. The bottle was inverted twice more and the contents were poured out. Acetonitrile (10 mL) was added to the bottle to extract any remaining material. The acetonitrile solution was analyzed by reversed-phase liquid chromatography with UV detection. The cleanout rating (the concentration of halosulfuron-methyl herbicide in the acetonitrile solution) is reported in % in Table 6 below.

[4] = OD formulation, measured vs original concentration 40%
[5] = OD formulation, original concentration 40%
[6] = SG formulation, measured vs original concentration 25%
[7] = SG formulation, original concentration 25%
[8] = WG formulation, measured vs original concentration 25%
[9] = WG formulation, original concentration 25%

Row | SMILES | Solubility [1, 4] [%] | Concentration measured by HPLC after treatment [1, 5] [%] | Solubility [1, 6] [%] | Concentration measured by HPLC after treatment [1, 7] [%] | Solubility [1, 8] [%] | Concentration measured by HPLC after treatment [1, 9] [%] | viscosity (in words) ([2]; listed as halosulfuron-methyl in amorphous state) | Cleanout rating (concentration of halosulfuron-methyl in the acetonitrile solution) ([3]; OD formulation) [%] | Cleanout rating (concentration of halosulfuron-methyl in the acetonitrile solution) ([3]; SG formulation) [%] | Cleanout rating (concentration of halosulfuron-methyl in the acetonitrile solution) ([3]; WG formulation) [%] | solubility (in words) ([1]; compared with amorphous halosulfuron-methyl) | viscosity (in words) ([2]; listed as crystalline modification I of halosulfuron-methyl)
1 | COC(=O)c1c(Cl)nn(C)c1S(=O)(=O)NC(=O)Nc1nc(OC)cc(OC)n1 [Amorphous halosulfuron-methyl, methyl 3-chloro-5-(4,6-dimethoxypyrimidin-2-ylcarbamoylsulfamoyl)-1-methylpyrazole-4-carboxylate, reference compound] | 35 | 14 | 60 | 15 | 48 | 12 | highly viscous | 26 | 10 | 13 |  | 
2 | COC(=O)c1c(Cl)nn(C)c1S(=O)(=O)NC(=O)Nc1nc(OC)cc(OC)n1 [Halosulfuron-methyl, crystalline modification I] [methyl 3-chloro-5-(4,6-dimethoxypyrimidin-2-ylcarbamoylsulfamoyl)-1-methylpyrazole-4-carboxylate] | 88 | 35 | 99.6 | 24.9 | 92 | 23 |  | 5 | 0.1 | 2 | significant increase | decrease
